Results reported in PMC9090415, “Discovery of small molecule inhibitors of Plasmodium falciparum apicoplast DNA polymerase” (Journal of Enzyme Inhibition and Medicinal Chemistry, 2022).

Target: P. falciparum apicoplast DNA polymerase (Pf-apPOL) (Plasmodium falciparum, UniProt Q8ILY1)
Assay: Fluorescence-based high-throughput DNA polymerase assay (molecular beacon), primary screen and dose-response
Type: biochemical
Settings: for DNA Pol: 90 min, 10 µM
Procedure: The HT assay employs a molecular beacon, a stem-loop DNA template with a Cy3 dye and the Black Hole Quencher on the 3′ and 5′ ends of the DNA, respectively. Pf-apPOL concentration is based on a calculated absorptivity of ε280 = 56750 M^−1 cm^−1. Reactions were carried out at 25 °C, using Corning 3575 […] (well-volume, 20 µL). Assays testing for compound inhibition composed of reaction buffer (pH 7.9 in 50 mM potassium acetate, 20 mM Tris-acetate and 10 mM magnesium acetate), Pf-apPOL (20 nM), DNA substrate (20 nM), dNTPs (6 µM), and compound (10 µM in DMSO). The DNA and nucleotide substrates (dNTPs) were at concentrations of 20 nM and 6 µM, respectively, in the assay. Pf-apPOL was incubated in the reaction buffer with dNTPs and the compound of interest (10 µM, in the assay) at 25 °C for 10 min. The DNA substrate was then added and the reaction was allowed to proceed for 90 min at 25 °C.
Each assay plate contained 16 negative controls (no Pf-apPOL, DMSO present) and 16 positive controls (Pf-apPOL present, no DMSO). The fluorescence of each well was determined using a BioTek Synergy Neo fluorescence plate reader using excitation and emission wavelengths of 555 and 570 nm, respectively.
In the above, Min is the average of fluorescence emission of the negative controls (substrate only), Max the average fluorescence emission from the positive controls (enzyme + substrate), and Test the emission from the assays in the presence of compounds (enzyme + compound + substrates). […] […] The IC50 of each compound was determined using Equation (2): (2) IC50= Vmax/(1+ (I/IC50)^n)
In the above, n measures cooperativity, with n > 1 indicating synergistic binding of more than a single molecule of the compound.
To identify apPOL inhibitors we utilised our previously developed high-throughput DNA polymerase assay. The HT assay is based on a molecular beacon DNA template that forms a stem-loop with a Cy3 dye and the Black Hole Quencher on the 3′ and 5′ ends of the DNA, respectively. DNA polymerase activity extends an annealed primer through the stem region, displacing the fluorophore from the quencher, thereby increasing its fluorescence (Figure 1(A)). The assay accurately recapitulates the kinetic behaviour of apPOL, as measured through more conventional low-throughput gel-based assays. The Z′ factor for the assay described here was 0.9 across all plates (data not shown).
Figure 1. High-throughput screening. (A) The fluorescent-based DNA polymerase assay used to screen the compound libraries. The DNA template strand is a hairpin loop with a primer annealed to the loop. The 3’ end of the primer is 11 bases away from the 6 bp duplex. Strand displacement activity of the DNA polymerase separates the Cy3 dye from the Black hole quencher leading to an increase in fluorescent signal. (B) The high-throughput assay workflow. The DNA polymerase is incubated with […] compound for 10 min prior to addition of the hairpin substrate. The reaction is quenched at 3 different time points and the fluorescent signal is measured and % inhibition is determined using the provided equation.

[1] = primary screen value of the 186 hits, unit not given

P. falciparum apicoplast DNA polymerase (Pf-apPOL), sequence (Q8ILY1 entry or part of it): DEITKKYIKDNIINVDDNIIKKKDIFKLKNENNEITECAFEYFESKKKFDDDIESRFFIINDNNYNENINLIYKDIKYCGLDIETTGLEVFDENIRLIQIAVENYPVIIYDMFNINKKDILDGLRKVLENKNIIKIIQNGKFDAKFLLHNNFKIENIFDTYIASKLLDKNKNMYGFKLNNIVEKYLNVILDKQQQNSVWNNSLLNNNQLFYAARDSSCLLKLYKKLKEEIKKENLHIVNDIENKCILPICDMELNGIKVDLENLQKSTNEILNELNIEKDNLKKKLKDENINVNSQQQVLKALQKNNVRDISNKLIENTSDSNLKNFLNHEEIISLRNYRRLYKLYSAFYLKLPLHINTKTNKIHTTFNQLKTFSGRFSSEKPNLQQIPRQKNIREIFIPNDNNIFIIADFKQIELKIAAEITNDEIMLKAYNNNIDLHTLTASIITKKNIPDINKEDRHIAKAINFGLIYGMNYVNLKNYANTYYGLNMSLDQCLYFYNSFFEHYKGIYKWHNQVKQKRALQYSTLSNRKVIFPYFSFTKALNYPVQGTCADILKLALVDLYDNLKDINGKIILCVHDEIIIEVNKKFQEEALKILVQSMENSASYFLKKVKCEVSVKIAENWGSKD

NC(=O)c1cc[n+](CC2=C(C(=O)O)N3C(=O)[C@@H](NC(=O)[C@@H](c4ccccc4)S(=O)(=O)[O-])[C@H]3SC2)cc1 [Molecule 9]
IC50 (supplemental file 2, sheet IC50 nontoxic compounds, Pf-apPOL): 4.4 µM

COc1ccc(C)cc1NC(=O)Cn1ccc2c(=O)[nH]ccc21 [Molecule 15, COc1ccc(cc1NC(=O)Cn1ccc2c1cc[nH]c2=O)C]
% inhibition Apo pol 10' (DRC-1, concentration 2.5): 1.7584% | % inhibition Apo pol 10' (DRC-1, concentration 5): 31.9729% | % inhibition Apo pol 10' (DRC-1, concentration 10): 59.9251% | % inhibition Apo pol 10' (DRC-1, concentration 20): 81.9832% | % inhibition Apo pol 10' (DRC-1, concentration 40): 82.3162% | % inhibition Apo pol 10' (DRC-1, concentration 80): 74.4719% | % inhibition Apol 90' (DRC-1, 90', concentration 2.5): -2.786% | % inhibition Apol 90' (DRC-1, 90', concentration 5): 18.8368% | % inhibition Apol 90' (DRC-1, 90', concentration 10): 46.9508% | % inhibition Apol 90' (DRC-1, 90', concentration 20): 77.5716% | % inhibition Apol 90' (DRC-1, 90', concentration 40): 84.7552% | % inhibition Apol 90' (DRC-1, 90', concentration 80): 84.8173% | % inhibition apPOL 180' (DRC-1, 180', concentration 2.5): -5.413% | % inhibition apPOL 180' (DRC-1, 180', concentration 5): 6.847% | % inhibition apPOL 180' (DRC-1, 180', concentration 10): 30.4146% | % inhibition apPOL 180' (DRC-1, 180', concentration 20): 67.1672% | % inhibition apPOL 180' (DRC-1, 180', concentration 40): 81.3984% | % inhibition apPOL 180' (DRC-1, 180', concentration 80): 86.595% | % inhibition Apo pol 5' (DRC-2, 5', concentration 2.5): 1.82% | % inhibition Apo pol 5' (DRC-2, 5', concentration 5): 24% | % inhibition Apo pol 5' (DRC-2, 5', concentration 10): 47% | % inhibition Apo pol 5' (DRC-2, 5', concentration 20): 44% | % inhibition Apo pol 5' (DRC-2, 5', concentration 40): 34% | % inhibition Apo pol 5' (DRC-2, 5', concentration 80): 8% | % inhibition Apol 40' (DRC-2, 40', concentration 2.5): 0.779% | % inhibition Apol 40' (DRC-2, 40', concentration 5): 28% | % inhibition Apol 40' (DRC-2, 40', concentration 10): 63% | % inhibition Apol 40' (DRC-2, 40', concentration 20): 65% | % inhibition Apol 40' (DRC-2, 40', concentration 40): 60% | % inhibition Apol 40' (DRC-2, 40', concentration 80): 46% | % inhibition ApPOL 90' (DRC-2, 90', concentration 2.5): -0.827% | % inhibition ApPOL 90' (DRC-2, 90', concentration 5): 24% | % inhibition ApPOL 90' (DRC-2, 90', concentration 10): 64% | % inhibition ApPOL 90' (DRC-2, 90', concentration 20): 67% | % inhibition ApPOL 90' (DRC-2, 90', concentration 40): 66% | % inhibition ApPOL 90' (DRC-2, 90', concentration 80): 55% | % inhibition apPOL 180' (DRC-2, 180', concentration 2.5): -8% | % inhibition apPOL 180' (DRC-2, 180', concentration 5): 12% | % inhibition apPOL 180' (DRC-2, 180', concentration 10): 58% | % inhibition apPOL 180' (DRC-2, 180', concentration 20): 66% | % inhibition apPOL 180' (DRC-2, 180', concentration 40): 72% | % inhibition apPOL 180' (DRC-2, 180', concentration 80): 64% | % inhibition Apo pol 5' (conc. 5, 5', DRC-2): 24% | % inhibition ApPOL 90' (conc. 5, 90', DRC-2): 24% | % inhibition ApPOL 90' (conc. 10, 90', DRC-2): 64% | % inhibition apPOL 180' (conc. 20, 180', DRC-2): 66% | % inhibition ApPOL 90' (conc. 40, 90', DRC-2): 66% | % inhibition apPOL 180' (conc. 80, 180', DRC-2): 64% | DNA Pol (primary screen value by plate and well): 73 | DNA Pol [1]: 73

Cc1cccc(CC(=O)N2CCc3c(nc4cc(-c5ccccc5)[nH]n4c3=O)C2)c1 [Molecule 12, Cc1cccc(c1)CC(=O)N1CCc2c(C1)nc1n(c2=O)[nH]c(c1)c1ccccc1]
% inhibition Apo pol 10' (DRC-1, concentration 2.5): 15% | % inhibition Apo pol 10' (DRC-1, concentration 5): 48% | % inhibition Apo pol 10' (DRC-1, concentration 10): 68% | % inhibition Apo pol 10' (DRC-1, concentration 20): 81% | % inhibition Apo pol 10' (DRC-1, concentration 40): 86% | % inhibition Apo pol 10' (DRC-1, concentration 80): 83% | % inhibition Apol 90' (DRC-1, 90', concentration 2.5): 3.59% | % inhibition Apol 90' (DRC-1, 90', concentration 5): 28% | % inhibition Apol 90' (DRC-1, 90', concentration 10): 50% | % inhibition Apol 90' (DRC-1, 90', concentration 20): 69% | % inhibition Apol 90' (DRC-1, 90', concentration 40): 81% | % inhibition Apol 90' (DRC-1, 90', concentration 80): 85% | % inhibition apPOL 180' (DRC-1, 180', concentration 2.5): -4% | % inhibition apPOL 180' (DRC-1, 180', concentration 5): 13% | % inhibition apPOL 180' (DRC-1, 180', concentration 10): 32% | % inhibition apPOL 180' (DRC-1, 180', concentration 20): 55% | % inhibition apPOL 180' (DRC-1, 180', concentration 40): 73% | % inhibition apPOL 180' (DRC-1, 180', concentration 80): 82% | % inhibition Apo pol 5' (DRC-2, 5', concentration 10 (unit not given)): 44% | % inhibition Apo pol 5' (DRC-2, 5', concentration 40 (unit not given)): 48% | % inhibition Apol 40' (DRC-2, 40', concentration 40 (unit not given)): 66% | % inhibition ApPOL 90' (DRC-2, 90', concentration 20 (unit not given)): 66% | % inhibition ApPOL 90' (DRC-2, 90', concentration 40 (unit not given)): 70% | % inhibition apPOL 180' (DRC-2, 180', concentration 10 (unit not given)): 44% | % inhibition apPOL 180' (DRC-2, 180', concentration 40 (unit not given)): 70% | % inhibition apPOL 180' (DRC-2, 180', concentration 80 (unit not given)): 69% | % inhibition Apo pol 5' (DRC-2, 5', concentration 2.5): 7% | % inhibition Apo pol 5' (DRC-2, 5', concentration 5): 23% | % inhibition Apo pol 5' (DRC-2, 5', concentration 10): 44% | % inhibition Apo pol 5' (DRC-2, 5', concentration 20): 49% | % inhibition Apo pol 5' (DRC-2, 5', concentration 40): 48% | % inhibition Apo pol 5' (DRC-2, 5', concentration 80): 43% | % inhibition Apol 40' (DRC-2, 40', concentration 2.5): 5.58% | % inhibition Apol 40' (DRC-2, 40', concentration 5): 25% | % inhibition Apol 40' (DRC-2, 40', concentration 10): 54% | % inhibition Apol 40' (DRC-2, 40', concentration 20): 65% | % inhibition Apol 40' (DRC-2, 40', concentration 40): 66% | % inhibition Apol 40' (DRC-2, 40', concentration 80): 62% | % inhibition ApPOL 90' (DRC-2, 90', concentration 2.5): 4.61% | % inhibition ApPOL 90' (DRC-2, 90', concentration 5): 22% | % inhibition ApPOL 90' (DRC-2, 90', concentration 10): 53% | % inhibition ApPOL 90' (DRC-2, 90', concentration 20): 66% | % inhibition ApPOL 90' (DRC-2, 90', concentration 40): 70% | % inhibition ApPOL 90' (DRC-2, 90', concentration 80): 67% | % inhibition apPOL 180' (DRC-2, 180', concentration 2.5): 2.3% | % inhibition apPOL 180' (DRC-2, 180', concentration 5): 12% | % inhibition apPOL 180' (DRC-2, 180', concentration 10): 44% | % inhibition apPOL 180' (DRC-2, 180', concentration 20): 63% | % inhibition apPOL 180' (DRC-2, 180', concentration 40): 70% | % inhibition apPOL 180' (DRC-2, 180', concentration 80): 69% | % inhibition Apo pol 10' (first dose-response, concentration 5 (unit not given)): 48% | % inhibition Apo pol 10' (first dose-response, concentration 20 (unit not given)): 81% | % inhibition Apol 90' (first dose-response, 90', concentration 20 (unit not given)): 69% | % inhibition Apol 90' (first dose-response, 90', concentration 40 (unit not given)): 81% | DNA Pol [1]: 49 | DNA Pol (primary screen value, head "DNA Pol", unit not given): 49
